Data published in patent US4845109A, “Alkoxy-and phenoxy alkyl esters of 2,6-dimethyl-4-(2-difluoromethoxyphenyl)-1,4-dihydropyridine-3,5-carboxy lic acid” (priority 1988, dated 1989).

Tests used:
arterial pressure [1] = assay: Acute experiments on narcotized cats: reduction of arterial pressure (intravenous); type: in vivo; conditions: for ED30: Felis catus, read-out: ED30 (average dose that reduces the arterial pressure by 30%)
Experimental: In acute experiments on cats narcotized with glucochloralose and urethane (90 and 200 mg/kg, respectively, administered intraperitoneally), there were recorded arterial pressure from the common carotid artery, respiration and an ECG with standard lead II. The compounds under study were administered intravenously as a dimethylacetamide solution.
(§1) Average doses of the compounds under study that
(§2) reduce the arterial pressure in narcotized animals by 30%

in vivo = conditions: mouse, ip
Description: Acute toxicity of the compounds involved compared
with the known drugs tested on albino mice
(intraperitoneal administration)

arterial pressure [2] = assay: Hypotensive activity in narcotized rats: reduction of arterial pressure; type: in vivo; conditions: Rattus norvegicus; narcotized rats (urethane); read-out: ED30 (average dose that reduces the arterial pressure by 30%)
Description: as §1, §2

[3] = test system: systolic arterial pressure; assay: Hypotensive effect in spontaneously hypertensive rats (SHR), oral; type: in vivo; conditions: for Hypotensive effect compared with Niphedipin / Hypotensive potency: 3 and 10 mg/kg
[4] = background art, occasionally; cited from earlier work
coronary artery = assay: Blood circulation rate in coronary artery of narcotized dogs; type: in vivo; conditions: intravenous
cerebral vessels = conditions: background art; cited from earlier work
vertebral artery = assay: Blood circulation rate in vertebral artery of narcotized dogs; type: in vivo; conditions: intravenous
carotid artery = assay: Blood circulation rate in carotid artery of narcotized dogs; type: in vivo; conditions: intravenous
femoral artery = assay: Blood circulation rate in femoral artery of narcotized dogs; type: in vivo; conditions: intravenous
[5] = test system: arteries supplying blood to the heart and brain; assay: Systolic arterial pressure and blood circulation in arteries of heart and brain of narcotized dogs; type: in vivo; conditions: intravenous

COCC(C)OC(=O)C1=C(C)NC(C)=C(C(=O)OC(C)COC)C1c1ccccc1OC(F)F (stereo not drawn) [R = CH(CH3)CH2 OCH3, 2,6-dimethyl-3,5-bis-[(1-methyl-2-methoxy)-ethoxycarbonyl]-4-(2-difluoromethoxyphenyl)-1,4-dihydropyridine]
Persistence of hypotensive effect (arterial pressure [1]): 10 min | ED30 (arterial pressure [1]): 0.038 mg/kg | LD50 (in vivo): 2500 mg/kg

CCOCCOC(=O)C1=C(C)NC(C)=C(C(=O)OCCOCC)C1c1ccccc1OC(F)F [R = C2 H4 OC2 H5, 2,6-dimethyl-3,5-bis-(2-ethoxyethoxycarbonyl)-4-(2-difluoromethoxyphenyl)-1,4-dihydropyridine]
ED30 (arterial pressure [2]): 0.018 mg/kg | Persistence of hypotensive effect (arterial pressure [1]): 6 min | ED30 (arterial pressure [1]): 0.01 mg/kg | Tachycardia [3]: not causative of tachycardia | Hypotensive effect compared with Niphedipin [3]: does not differ substantially | Hypotensive potency [3]: most markedly pronounced hypotensive potency | LD50 (in vivo): 2200 mg/kg

CC1=C(C(=O)OCCOc2ccccc2)C(c2ccccc2OC(F)F)C(C(=O)OCCOc2ccccc2)=C(C)N1 [R = C2 H4 OC6 H5, 2,6-dimethyl-3,5-bis-(2phenoxyethoxycarbonyl)-4-(2difluoromethoxyphenyl)-1,4-dihydropyridine]
ED30 (arterial pressure [2]): 0.03 mg/kg | Persistence of hypotensive effect (arterial pressure [1]): 7 min | ED30 (arterial pressure [1]): 0.02 mg/kg | Hypotensive effect compared with Niphedipin [3]: does not differ substantially | Hypotensive potency [3]: most markedly pronounced hypotensive potency | LD50 (in vivo): 790 mg/kg

COC(=O)C1=C(C)NC(C)=C(C(=O)OC)C1c1ccccc1[N+](=O)[O-] [Niphedipin, 2,6-dimethyl-3,5-dimethoxycarbonyl-4-(2-nitrophenyl)-1,4-dihydropyrine, reference compound]
Persistence of hypotensive effect (arterial pressure [1]): 6 min | ED30 (arterial pressure [1]): 0.02 mg/kg | Side effects [4]: dizziness and nausea | Tachycardia [3]: tachycardia

COC(=O)C1=C(C)NC(C)=C(C(=O)OCCN(C)Cc2ccccc2)C1c1cccc([N+](=O)[O-])c1.Cl (stereo not drawn) [Nicardipin, 2,6-dimethyl-3-methoxy-carbonyl-4-(3-nitrophenyl)-5-[2(N-benzyl-N-methylamino)ethoxycarbonyl]-1,4-dihydropyridine hydrochloride, reference compound]
Blood circulation rate in coronary artery, percentage increase (coronary artery; 0.001 mg/kg): 12% | Blood circulation rate in coronary artery, persistence (coronary artery; 0.001 mg/kg): 5 min | Blood circulation rate in coronary artery, percentage increase (coronary artery; 0.002 mg/kg): 30% | Blood circulation rate in coronary artery, persistence (coronary artery; 0.002 mg/kg): 12 min | Persistence of hypotensive effect (arterial pressure [1]): 8 min | ED30 (arterial pressure [1]): 0.025 mg/kg | Activity (cerebral vessels): inadequate activity | Vasodilation activity (cerebral vessels): vasodilation activity preponderantly towards cerebral vessels | Blood circulation rate in vertebral artery, percentage increase (vertebral artery; 0.001 mg/kg): 14% | Blood circulation rate in vertebral artery, persistence (vertebral artery; 0.001 mg/kg): 6 min | Blood circulation rate in vertebral artery, percentage increase (vertebral artery; 0.002 mg/kg): 40% | Blood circulation rate in vertebral artery, persistence (vertebral artery; 0.002 mg/kg): 20 min | LD50 (in vivo): 225 mg/kg | Blood circulation rate in carotid artery, percentage increase (carotid artery; 0.001 mg/kg): 14% | Blood circulation rate in carotid artery, persistence (carotid artery; 0.001 mg/kg): 6 min | Blood circulation rate in carotid artery, percentage increase (carotid artery; 0.002 mg/kg): 60% | Blood circulation rate in carotid artery, persistence (carotid artery; 0.002 mg/kg): 12 min | Blood circulation rate in femoral artery, percentage increase (femoral artery; 0.001 mg/kg): 10% | Blood circulation rate in femoral artery, persistence (femoral artery; 0.001 mg/kg): 5 min | Blood circulation rate in femoral artery, percentage increase (femoral artery; 0.002 mg/kg): 26% | Blood circulation rate in femoral artery, persistence (femoral artery; 0.002 mg/kg): 10 min

COCCOC(=O)C1=C(C)NC(C)=C(C(=O)OCCOC)C1c1ccccc1OC(F)F [R = C2 H4 OCH3, 2,6-dimethyl-3,5-bis-(2-methoxyethoxycarbonyl)-4-(2-difluoromethoxyphenyl)-1,4-dihydropyridine]
ED30 (arterial pressure [2]): 0.04 mg/kg | Persistence of hypotensive effect (arterial pressure [1]): 3 min | ED30 (arterial pressure [1]): 0.045 mg/kg | LD50 (in vivo): 1130 mg/kg

CCCOCCOC(=O)C1=C(C)NC(C)=C(C(=O)OCCOCCC)C1c1ccccc1OC(F)F [R = C2 H4 OC3 H7, 2,6-dimethyl-3,5-bis-(2-propoxyethoxycarbonyl)-4-(2-difluoromethoxyphenyl)-1,4-dihydropyridine]
Blood circulation rate in coronary artery, percentage increase (coronary artery; 0.0005 mg/kg): 10% | Blood circulation rate in coronary artery, persistence (coronary artery; 0.0005 mg/kg): 5 min | Blood circulation rate in coronary artery, percentage increase (coronary artery; 0.001 mg/kg): 30% | Blood circulation rate in coronary artery, persistence (coronary artery; 0.001 mg/kg): 8 min | Blood circulation rate in coronary artery, percentage increase (coronary artery; 0.002 mg/kg): 50% | Blood circulation rate in coronary artery, persistence (coronary artery; 0.002 mg/kg): 12 min | ED30 (arterial pressure [2]): 0.008 mg/kg | Persistence of hypotensive effect (arterial pressure [1]): 7 min | ED30 (arterial pressure [1]): 0.0045 mg/kg | Hypotensive effect compared with Niphedipin [3]: does not differ substantially | Hypotensive potency [3]: most markedly pronounced hypotensive potency | Blood circulation rate in vertebral artery, percentage increase (vertebral artery; 0.0005 mg/kg): 20% | Blood circulation rate in vertebral artery, persistence (vertebral artery; 0.0005 mg/kg): 8 min | Blood circulation rate in vertebral artery, percentage increase (vertebral artery; 0.001 mg/kg): 90% | Blood circulation rate in vertebral artery, persistence (vertebral artery; 0.001 mg/kg): 18 min | Blood circulation rate in vertebral artery, percentage increase (vertebral artery; 0.002 mg/kg): 110% | Blood circulation rate in vertebral artery, persistence (vertebral artery; 0.002 mg/kg): 20 min | LD50 (in vivo): 450 mg/kg | Intensity and duration of effect on blood circulation rate compared with Nicardipin [5]: much more potent | Blood circulation rate in carotid artery, percentage increase (carotid artery; 0.0005 mg/kg): 17% | Blood circulation rate in carotid artery, persistence (carotid artery; 0.0005 mg/kg): 5 min | Blood circulation rate in carotid artery, percentage increase (carotid artery; 0.001 mg/kg): 60% | Blood circulation rate in carotid artery, persistence (carotid artery; 0.001 mg/kg): 15 min | Blood circulation rate in carotid artery, percentage increase (carotid artery; 0.002 mg/kg): 100% | Blood circulation rate in carotid artery, persistence (carotid artery; 0.002 mg/kg): 20 min | Blood circulation rate in femoral artery, percentage increase (femoral artery; 0.0005 mg/kg): 0% | Blood circulation rate in femoral artery, percentage increase (femoral artery; 0.001 mg/kg): 10% | Blood circulation rate in femoral artery, persistence (femoral artery; 0.001 mg/kg): 8 min | Blood circulation rate in femoral artery, percentage increase (femoral artery; 0.002 mg/kg): 25% | Blood circulation rate in femoral artery, persistence (femoral artery; 0.002 mg/kg): 10 min
